Assay results: PMC3543423, “Structure Prediction and Validation of the ERK8 Kinase Domain” (PLoS ONE, 2013)

Biological target: T1, ERK8 (Homo sapiens, UniProt Q8TD08)
T1 construct: gene MAPK15; full-length GST-ERK8 (baculovirus-expressed, GST-ERK8Bac)
T1 sequence (Q8TD08 1-544): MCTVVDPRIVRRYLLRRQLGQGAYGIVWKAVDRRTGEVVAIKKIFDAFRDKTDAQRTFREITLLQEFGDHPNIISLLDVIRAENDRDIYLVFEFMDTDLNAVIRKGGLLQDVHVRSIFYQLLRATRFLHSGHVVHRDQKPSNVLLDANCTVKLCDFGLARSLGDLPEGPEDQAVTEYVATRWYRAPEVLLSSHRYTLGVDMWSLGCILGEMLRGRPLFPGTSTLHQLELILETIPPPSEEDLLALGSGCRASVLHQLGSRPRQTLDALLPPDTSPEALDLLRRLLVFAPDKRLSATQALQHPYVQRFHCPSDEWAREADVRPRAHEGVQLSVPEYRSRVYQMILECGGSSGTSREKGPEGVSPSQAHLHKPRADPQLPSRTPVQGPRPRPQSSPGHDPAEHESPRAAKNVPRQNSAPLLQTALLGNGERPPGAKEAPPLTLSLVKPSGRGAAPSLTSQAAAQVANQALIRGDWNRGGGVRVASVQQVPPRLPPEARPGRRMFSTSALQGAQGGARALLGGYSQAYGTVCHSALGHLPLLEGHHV
Assay: radiometric [γ-32P]ATP kinase assay with MBP substrate, dose/response; ATP competition; reduced inhibition of F92I mutant
Format: biochemical

| SMILES | IC50 [µM] |
| --- | --- |
| CCOC(=O)c1c(C(=O)CSc2nc(-c3ccccc3)cc(-c3ccc(OC)cc3)c2C#N)sc2c1CCCC2 [ITT53] | 27 |
| COc1ccccc1NC(=O)c1cccc(Nc2nc(-c3ccccc3)c3cc(Br)ccc3n2)c1 [ITT57] | 17 |
